For data set [1], the target named is T1, cytosolic kinase domain of KDR kinase (Homo sapiens, UniProt P35968).
T1 construct: The cytosolic kinase domain of KDR kinase was expressed as a 6His fusion protein in Sf9 insect cells; 6His; made in house; host or cells: Sf9 insect cells
In words: KDR Assay (ELISA, poly(Glu4;Tyr1) phosphorylation). The note with it: 3.3 μM ATP, 60 minutes at room temperature. Format: biochemical. Here is the method: The cytosolic kinase domain of KDR kinase was expressed as a 6His fusion protein in Sf9 insect cells. The KDR kinase domain fusion protein was purified over a Ni++ chelating column. Ninety-six well ELISA plates were coated with 5 μg poly(Glu4;Tyr1) (Sigma Chemical Co., St Louis, Mo.) in 100 μl HEPES buffer (20 mM HEPES, pH 7.5, 150 mM NaCl, 0.02% Thimerosal) at 4° overnight. Before use, the plate was washed with HEPES, NaCl buffer and the plates were blocked with 1% BSA, 0.1% Tween 20 in HEPES, NaCl buffer.
Test compounds were serially diluted in 100% DMSO from 4 mM to 0.12 μM in half-log dilutions. These dilutions were further diluted twenty fold in H2O to obtain compound solutions in 5% DMSO. Following loading of the assay plate with 85 μl of assay buffer (20 mM HEPES, pH 7.5, 100 mM KCl, 10 mM MgCl2, 3 mM MnCl2, 0.05% glycerol, 0.005% Triton X-100, 1 mM-mercaptoethanol, with or without 3.3 μM ATP), 5 μl of the diluted compounds were added to a final assay volume of 100 μl. Final concentrations were between 10 μM, and 0.3 nM in 0.25% DMSO. The assay was initiated by the addition of 10 μl (30 ng) of KDR kinase domain.
The assay was incubated with test compound or vehicle alone with gentle agitation at room temperature for 60 minutes. The wells were washed and phosphotyrosines (PY) were probed with an anti-phosphotyrosine (PY), mAb clone 4G10 (Upstate Biotechnology, Lake Placid, N.Y.). PY/anti-PY complexes were detected with an anti-mouse IgG/HRP conjugate (Amersham International plc, Buckinghamshire, England). Phosphotyrosine was quantitated by incubating with 100 μl 3,3′,5,5′tetramethylbenzidine solution (Kirkegaard and Perry, TMB Microwell 1 Component peroxidase substrate). Color development was arrested by the addition of 100 μl 1% HCl-based stop solution (Kirkegaard and Perry, TMB 1 Component Stop Solution).
Optical densities were determined spectrophotometrically at 450 nm in a 96-well plate reader, SpectraMax 250 (Molecular Devices). Background (no ATP in assay) OD values were subtracted from all ODs and the percent inhibition was calculated according to the equation: [formula]

Data set [2] addresses T2, full length KDR receptor in NIH3T3 cells (Homo sapiens, UniProt P35968).
T2 construct: NIH3T3 cells expressing the full length KDR receptor were grown in DMEM; expressed in transfected cells; host or cells: NIH3T3 cells (G418 selection)
In words: Cell Mechanistic Assay-Inhibition of 3T3 KDR Phosphorylation. Conditions: NIH3T3 cells expressing KDR, VEGF 30 ng/ml stimulation. Format: cell-based. The protocol:
NIH3T3 cells expressing the full length KDR receptor were grown in DMEM (Life Technologies, Inc., Grand Island, N.Y.) supplemented with 10% newborn calf serum, low glucose, 25 mM/L sodium pyruvate, pyridoxine hydrochloride and 0.2 mg/ml of G418 (Life Technologies Inc., Grand Island, N.Y.). The cells were maintained in collagen I-coated T75 flasks (Becton Dickinson Labware, Bedford, Mass.) in a humidified 5% CO2 atmosphere at 37° C.
Fifteen thousand cells were plated into each well of a collagen I-coated 96-well plate in the DMEM growth medium. Six hours later, the cells were washed and the medium was replaced with DMEM without serum. After overnight culture to quiesce the cells, the medium was replaced by Dulbecco's phosphate-buffered saline (Life Technologies Inc., Grand Island, N.Y.) with 0.1% bovine albumin (Sigma Chemical Co., St Louis, Mo.). After adding various concentrations (0-300 nM) of test compounds to the cells in 1% final concentration of DMSO, the cells were incubated at room temperature for 30 minutes. The cells were then treated with VEGF (30 ng/ml) for 10 minutes at room temperature. Following VEGF stimulation, the buffer was removed and the cells were lysed by addition of 150 μl of extraction buffer (50 mM Tris, pH 7.8, supplemented with 10% glycerol, 50 mM BGP, 2 mM EDTA, 10 mM NaF, 0.5 mM NaVO4, and 0.3% TX-100) at 4° C. for 30 minutes.
To assess receptor phosphorylation, 100 microliters of each cell lysate was added to the wells of an ELISA plate precoated with 300 ng of antibody C20 (Santa Cruz Biotechnology, Inc., Santa Cruz, Calif.). Following a 60-minute incubation, the plate was washed and bound KDR was probed for phosphotyrosine using an anti-phosphotyrosine mAb clone 4G10 (Upstate Biotechnology, Lake Placid, N.Y.). The plate was washed and wells were incubated with anti-mouse IgG/HRP conjugate (Amersham International plc, Buckinghamshire, England) for 60 minutes. Wells were washed and phosphotyrosine was quantitated by addition of 100 μl per well of 3,3′,5,5′tetramethylbenzidine (Kirkegaard and Perry, TMB Microwell 1 Component peroxidase substrate) solution. Color development was arrested by the addition of 100 μl 1% HCl based stop solution (Kirkegaard and Perry, TMB 1 Component Stop Solution).
Optical densities (OD) were determined spectrophotometrically at 450 nm in a 96-well plate reader (SpectraMax 250, Molecular Devices). Background (no VEGF added) OD values were subtracted from all ODs and percent inhibition was calculated according to the equation: [formula]
IC50s were determined on some of the exemplary materials with a least squares analysis program using compound concentration versus percent inhibition. Compounds that have IC50≦20 nM in this assay include those of Examples 2, 6, 10, 11, 14, 23, 96, 101, 102, 103, 104, 105. Compounds that have IC50 values between 20 nM and 50 nM include those of examples 1, 4, 8, 9, 12, 13, 17, 24, 93, 98. Compounds that have IC50 values between 50 nM and 400 nM include those of examples 97, 99, and 100.

These results are taken from patent publication US6689883B1, “Substituted pyridines and pyridazines with angiogenesis inhibiting activity” (Bayer Pharmaceuticals Corporation, priority 1999, dated 2004).

Usually pIC50 stands for −log10 of the IC50, conventionally taken in molar units. A high value points to a low IC50. Usually melting point stands for the temperature of the solid-liquid transition.

pIC50: −log10 of the molar value.

T2 sequence (P35968 20-1356): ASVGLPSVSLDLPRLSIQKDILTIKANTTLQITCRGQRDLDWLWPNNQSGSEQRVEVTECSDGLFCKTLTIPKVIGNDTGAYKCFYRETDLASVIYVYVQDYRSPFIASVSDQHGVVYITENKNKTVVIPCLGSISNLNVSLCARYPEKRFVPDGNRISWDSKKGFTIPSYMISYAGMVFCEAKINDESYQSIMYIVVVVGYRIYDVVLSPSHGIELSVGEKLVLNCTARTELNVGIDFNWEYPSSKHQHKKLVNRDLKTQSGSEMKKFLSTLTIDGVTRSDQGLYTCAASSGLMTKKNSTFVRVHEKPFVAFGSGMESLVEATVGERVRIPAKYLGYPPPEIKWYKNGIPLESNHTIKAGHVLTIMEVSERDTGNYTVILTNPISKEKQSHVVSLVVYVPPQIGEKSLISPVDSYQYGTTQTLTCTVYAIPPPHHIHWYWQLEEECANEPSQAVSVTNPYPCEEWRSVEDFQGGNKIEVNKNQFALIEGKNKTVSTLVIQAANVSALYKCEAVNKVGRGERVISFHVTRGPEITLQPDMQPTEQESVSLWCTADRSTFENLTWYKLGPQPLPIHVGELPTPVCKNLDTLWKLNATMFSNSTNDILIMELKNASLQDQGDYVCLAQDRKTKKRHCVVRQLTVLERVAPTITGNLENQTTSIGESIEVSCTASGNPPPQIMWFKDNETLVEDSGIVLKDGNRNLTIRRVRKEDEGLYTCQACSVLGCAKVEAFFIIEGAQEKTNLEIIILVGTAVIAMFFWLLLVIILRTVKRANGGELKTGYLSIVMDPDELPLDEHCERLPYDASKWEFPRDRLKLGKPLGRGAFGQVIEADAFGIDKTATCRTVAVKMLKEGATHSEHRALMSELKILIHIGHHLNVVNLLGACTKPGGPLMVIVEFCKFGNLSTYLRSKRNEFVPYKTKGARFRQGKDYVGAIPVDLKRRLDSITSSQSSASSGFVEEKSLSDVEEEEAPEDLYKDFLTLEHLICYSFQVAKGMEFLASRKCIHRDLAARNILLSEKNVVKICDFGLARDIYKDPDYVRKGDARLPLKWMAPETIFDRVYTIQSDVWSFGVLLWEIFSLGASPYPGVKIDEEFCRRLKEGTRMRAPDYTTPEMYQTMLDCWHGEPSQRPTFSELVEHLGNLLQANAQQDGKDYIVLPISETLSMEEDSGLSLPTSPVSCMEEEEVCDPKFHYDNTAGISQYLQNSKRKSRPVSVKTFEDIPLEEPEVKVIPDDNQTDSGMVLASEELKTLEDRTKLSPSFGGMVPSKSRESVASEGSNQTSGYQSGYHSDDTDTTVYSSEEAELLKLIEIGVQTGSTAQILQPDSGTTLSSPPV
T1 sequence (P35968 834-1162 limits assumed): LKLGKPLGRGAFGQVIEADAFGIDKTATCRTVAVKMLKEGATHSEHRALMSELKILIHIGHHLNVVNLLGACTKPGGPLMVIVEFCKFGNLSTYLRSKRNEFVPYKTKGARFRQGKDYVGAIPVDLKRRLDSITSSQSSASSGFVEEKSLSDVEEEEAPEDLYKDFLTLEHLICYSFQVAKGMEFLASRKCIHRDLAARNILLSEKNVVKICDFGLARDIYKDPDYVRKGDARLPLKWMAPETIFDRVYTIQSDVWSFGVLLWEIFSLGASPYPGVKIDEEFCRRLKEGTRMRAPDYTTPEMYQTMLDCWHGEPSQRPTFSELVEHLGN

Consider `c1ccc2c(Nc3ccc4c(c3)CCC4)ncc(Sc3ccncc3)c2c1` [Example 2, 1-(indan-5-ylamino)-4-(4-pyridylthio)isoquinoline], for which the figures for the pIC50 in data set [1] and in data set [2] were at least 7.00 and at least 7.70, respectively.

For `c1ccc2c(Nc3ccc4c(c3)CCC4)ncc(Cc3ccncc3)c2c1` [Example 6, 1-(indan-5-ylamino)-4-(4-pyridylmethyl)-isoquinoline], the pIC50 is at least 7.00 in data set [1] and at least 7.70 in data set [2].

In the case of `Clc1ccc(Nc2nnc(OCc3ccncc3)c3sccc23)cc1` [Example 8, 4-(4-chlorophenylamino)-7-(4-pyridylmethoxy)thieno-[2,3-d]pyridazine], the melting point is 203 to 205 °C (dec.). In data set [1], the pIC50 was at least 7.00.

`Clc1ccc(Nc2nnc(OCc3ccncc3)c3occc23)cc1` [Example 9, 4-(4-chlorophenylamino)-7-(4-pyridylmethoxy)furo[2,3-d]pyridazine]: the negative logarithm of the IC50 (pIC50) in data set [1] is at least 7.00; in data set [2], 7.30 to 7.70.

The compound `NC(=O)c1cc(COc2nnc(Nc3ccc(Cl)cc3)c3ccsc23)ccn1` [Example 10, 4-(4-chlorophenylamino)-7-(2-aminocarbonyl-4-pyridylmethoxy)thieno-[2,3-d]pyridazine] registered a melting point of 233 °C. The same compound showed a pIC50 in data set [1] of at least 7.00. Moreover, in data set [2], the pIC50 is at least 7.70.

In the case of `CNC(=O)c1cc(COc2nnc(Nc3ccc(Cl)cc3)c3ccsc23)ccn1` [Example 11, 4-(4-chlorophenylamino)-7-(2-methylaminocarbonyl-4-pyridylmethoxy)thieno-[2,3-d]pyridazine], the pIC50 in data set [1] was at least 7.00; in data set [2] it was at least 7.70.

Regarding `CNC(=O)c1cc(COc2nnc(Nc3ccc(Cl)cc3)c3ccoc23)ccn1` [Example 14, 4-(4-chlorophenylamino)-7-(2-methylaminocarbonyl-4-pyridylmethoxy)furo-[2,3-d]pyridazine], the negative logarithm of the IC50 (pIC50) in data set [1] was at least 7.00; in data set [2], at least 7.70.

As for `Clc1ccc(Nc2nnc(Nc3ccc4ncsc4c3)c3sccc23)cc1` [Example 23], the pIC50 in data set [2] was at least 7.70.

For the compound `Clc1ccc(Nc2nnc(Nc3ccc4nn[nH]c4c3)c3ccccc23)cc1` [Example 96], the values for the negative-log IC50 (pIC50) in data set [1] and in data set [2] were at least 7.00 and at least 7.70, respectively.

Regarding `Brc1cccc(Nc2nnc(Nc3ccc4ncsc4c3)c3ccccc23)c1` [Example 101], the pIC50 is at least 7.00 in data set [1] and at least 7.70 in data set [2].

Turning to `CC(C)c1ccc(Nc2nnc(Nc3ccc4ncsc4c3)c3ccccc23)cc1` [Example 102], the results for the pIC50 in data set [1] and in data set [2] were at least 7.00 and at least 7.70, respectively.

As for `COc1cccc(Nc2nnc(Nc3ccc4ncsc4c3)c3ccccc23)c1` [Example 103], the negative-log IC50 (pIC50) in data set [1] was at least 7.00; in data set [2], at least 7.70.

For the compound `Clc1ccc(Nc2nnc(Nc3ccc4ncsc4c3)c3ccccc23)cc1` [Example 105], the pIC50 in data set [1] is at least 7.00; in data set [2] it was at least 7.70.
